Consider 32 compounds from patent US7064122B2, “Pancreatic lipase inhibitor compounds, their synthesis and use” (OSI Pharmaceuticals, Inc., priority 2001, dated 2006).

Usually inhibition stands for the drop in the measured response relative to a control, in per cent.

This experiment concerns the target T1, type VI-S porcine pancreatic lipase (Sus scrofa, UniProt P00591).
T1 construct: purchased Sigma type VI-S (catalogue number not given)
T1 sequence (P00591 1-450): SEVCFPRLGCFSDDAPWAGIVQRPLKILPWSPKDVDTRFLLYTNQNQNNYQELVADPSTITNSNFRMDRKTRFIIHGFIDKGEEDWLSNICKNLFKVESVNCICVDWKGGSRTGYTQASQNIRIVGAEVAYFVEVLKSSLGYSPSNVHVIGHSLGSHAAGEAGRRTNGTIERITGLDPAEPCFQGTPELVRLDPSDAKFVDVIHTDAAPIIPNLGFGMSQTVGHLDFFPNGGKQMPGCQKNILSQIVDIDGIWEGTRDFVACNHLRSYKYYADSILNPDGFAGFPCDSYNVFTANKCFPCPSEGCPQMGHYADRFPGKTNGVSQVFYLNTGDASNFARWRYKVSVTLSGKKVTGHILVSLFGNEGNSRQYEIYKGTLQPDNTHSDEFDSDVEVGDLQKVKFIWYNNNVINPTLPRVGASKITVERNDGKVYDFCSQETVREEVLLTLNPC
Kind of experiment: Pancreatic lipase assay (pH-stat titration, triolein substrate). Format: biochemical. Also on record: Ymax: unit not given here. The conditions noted are these: for Ymax / k: 7.0 nM lipase, 700 nM inhibitor, pH 8.0; for Ymax: Ymax of the fit Y=Ymax*(1-exp(-k*X)); for k: k fitted for the 12.5 min after inhibitor addition, Y=Ymax*(1-exp(-k*X)); for inhibition at 0.7 µM: 12.5 min. The method, then: The use of a pancreatic lipase assay has been described in the literature (Hadvary, P. et al. Biochem. J. (1988) 256: 357-361; Hadvary, P. et al. Biochem. J. (1991) 266:2021-2027). Pancreatic lipase activity was measured using a 718 Stat Titrino (Brinkmann) programmed to maintain a pH of 8.0 using 0.1 N NaOH. The substrate mixture (pH 8) contained 1 mM taurochenodeoxycholate (Sigma), 9 mM taurodeoxycholate (Sigma), 0.1 mM cholesterol (Sigma), 1 mM phosphatidylcholine (Sigma), 1.5% BSA, 2 mM Tris base, 100 mM NaCl, 10 mM CaCl2, and 3% triolein (Sigma). The mixture (5 mL) was emulsified via sonication at room temperature, and added to the titration vessel with rapid stirring. The Stat Titrino was turned on and lipase (7.0 nM type VI-S porcine pancreatic lipase (Sigma) dissolved in PBS) was added to the vessel. After 10 min, inhibitor (700 nM dissolved in 100% DMSO) was added and the reaction continued for an additional 12.5 min. The k values were determined for the 12.5 min after the addition of the inhibitor using a one phase exponential association equation, Y=Ymax*(1−exp(−k*X)), k values for lipase alone were 0.0004±0.0001 sec. The k values for compounds disclosed herein are >0.0004±0.0001 sec.

`CCCCCCCCOc1nc2sc(Cc3ccccc3)cc2c(=O)o1` [Entry 77, 6-Benzyl-2-octyloxythieno[2,3-d][1,3]oxazin-4-one]: the Ymax came to 0.482 and the k is listed as 0.392 10-3.s-1. As for `CCCCCCCCNc1nc2sc(C(=O)NCCOc3ccccc3)c(C)c2c(=O)o1` [Entry 70, 5-Methyl-2-octylamino-4-oxo-4H-thieno(2,3-d)(1,3)oxazine-6-carboxylic acid (2-phenoxy-ethyl)-amide], the Ymax was 0.140 and the k is on record as 1.999 10-3.s-1. Regarding `CCCCCCCCNc1nc2sc(C(=O)N3CCN(CC(=O)NC(C)C)CC3)c(C)c2c(=O)o1` [Entry 64, N-Isopropyl-2-(4-(5-methyl-2-octylamino-4-oxo-4H-thieno(2,3-d)(1,3)oxazine-6-carbonyl)-piperazin-1-yl)-acetamide], the Ymax was determined as 3.917 and the k was 0.176 10-3.s-1.

Consider `CCCCCCCOc1nc2sc(C(=O)OCc3ccccc3)c(C)c2c(=O)o1` [Entry 8, 2-Heptyloxy-5-methyl-4-oxo-4H-thieno[2,3-d][1,3]oxazine-6-carboxylic acid benzyl ester], for which the k is recorded as 1.052 10-3.s-1. With `CCCCCCC(C)Oc1nc2sc(C(=O)OCc3ccccc3)c(C)c2c(=O)o1` (stereo not shown) [Entry 89, 5-Methyl-2-(1-methylheptyloxy)-4-oxo-4H-thieno[2,3-d][1,3]oxazine-6-carboxylic acid benzyl ester], the inhibition at 0.7 µM was -14.1%.

For `CCCCCCCCNc1nc2sc(C(=O)NCCCOc3ccccc3)c(C)c2c(=O)o1` [Entry 44, 5-Methyl-2-octylamino-4-oxo-4H-thieno[2,3-d][1,3]oxazine-6-carboxylic acid (3-phenoxy-propyl)-amide], the k was 1.667 10-3.s-1. `CCCCCCCCOc1nc2sc(C(C)CC(C)(C)C)cc2c(=O)o1` (stereo not shown) [Entry 78, 2-Octyloxy-6-(1,3,3-trimethyl-butyl)-thieno[2,3-d][1,3]oxazin-4-one]: the Ymax worked out at 0.126, the k is reported as 1.315 10-3.s-1 and the inhibition at 0.7 µM was 17.9%. Regarding `CCCCCCCCCCc1cc2c(=O)oc(OCCCCCCCC)nc2s1` [Entry 86, 6-Decyl-2-octyloxythieno[2,3-d][1,3]oxazin-4-one], the inhibition at 0.7 µM is 73.6%.

On to `CCCCCCCCOc1nc2sc(C(C)C)cc2c(=O)o1` [Entry 76, 6-Isopropyl-2-octyloxy-thieno[2,3-d][1,3]oxazin-4-one], for which the Ymax came to 0.161 and the k is 1.288 10-3.s-1.

With “2-Hexadecyloxy-5-methyl-4-oxo-4H-thieno[2,3-d][1,3]oxazine-6-carboxylic acid benzyl ester [Entry 7]”, the k was 0.779 10-3.s-1.

As for `CCCCCCCCCCCCc1cc2c(=O)oc(OCCCCCCCC)nc2s1` [Entry 88, 6-Dodecyl-2-octyloxy-thieno[2,3-d][1,3]oxazin-4-one], the inhibition at 0.7 µM was determined as 74.2%. Turning to `CCCCCCCCOC(=O)c1sc2nc(Nc3ccc(Oc4ccccc4)cc3)oc(=O)c2c1C` [Entry 19, 5-Methyl-4-oxo-2-(4-phenoxy-phenylamino)-4H-thieno[2,3-d][1,3]oxazine-6-carboxylic acid octyl ester], the k is reported as 0.981 10-3.s-1. As for `CCCCCCCCN(CCCCCCCC)c1nc2sc(C(=O)OCc3ccccc3)c(C)c2c(=O)o1` [Entry 60, 2-Dioctylamino-5-methyl-4-oxo-4H-thieno[2,3-d][1,3]oxazine-6-carboxylic acid benzyl ester], the k was 0.013 10-3.s-1.

`CCCCCCCCc1cc2c(=O)oc(OCCCCCC)nc2s1` [Entry 94]: the inhibition at 0.7 µM stood at 83%. For the compound `CCCCCCCCNc1nc2sc(C(=O)NCc3ccncc3)c(C)c2c(=O)o1` [Entry 55, 5-Methyl-2-octylamino-4-oxo-4H-thieno[2,3-d][1,3]oxazine-6-carboxylic acid (pyridin-4-ylmethyl)-amide], the k is on record as 0.754 10-3.s-1. As for `CCCCCCCCCCNC(=O)c1sc2nc(NCCCCCCCC)oc(=O)c2c1C` [Entry 28, 5-Methyl-2-octylamino-4-oxo-4H-thieno[2,3-d][1,3]oxazine-6-carboxylic acid decylamide], the k is reported as 0.998 10-3.s-1. Turning to `CCCCCCCCNc1nc2sc(C(=O)N(CC)CCc3ccccn3)c(C)c2c(=O)o1` [Entry 51, 5-Methyl-2-octylamino-4-oxo-4H-thieno[2,3-d][1,3]oxazine-6-carboxylic acid ethyl-(2-pyridin-2-yl-ethyl)-amide], the k is given as 0.012 10-3.s-1. Consider `CCCCCCCCOc1nc2sc(CCCC)cc2c(=O)o1` [Entry 75, 6-Butyl-2-octyloxy-thieno[2,3-d][1,3]oxazin-4-one], for which the Ymax is given as 0.054 and the k was 2.219 10-3.s-1.

As to `CCCCCCCCNc1nc2sc(C(=O)NCCOC)c(C)c2c(=O)o1` [Entry 72, 5-Methyl-2-octylamino-4-oxo-4H-thieno(2,3-d)(1,3)oxazine-6-carboxylic acid (2-methoxy-ethyl)-amide], the Ymax is recorded as 0.185 and the k is recorded as 1.102 10-3.s-1.

On to `CCCCCCCCNC(=O)c1sc2nc(OCCCCCCCC)oc(=O)c2c1C` [Entry 15, 5-Methyl-2-octyloxy-4-oxo-4H-thieno[2,3-d][1,3]oxazine-6-carboxylic acid octylamide], for which the k is listed as 1.548 10-3.s-1. As to `CCCCCCCOC(=O)c1sc2nc(OCCCCCCC)oc(=O)c2c1C` [Entry 10, 5-Methyl-2-heptyloxy-4-oxo-4H-thieno[2,3-][1,3]oxazine-6-carboxylic acid heptyl ester], the k is 1.349 10-3.s-1. For `CCCCCCCCNc1nc2sc(C(=O)NCCCN(C)C)c(C)c2c(=O)o1` [Entry 46], the k was 0.062 10-3.s-1. Regarding `CCCCCCCc1cc2c(=O)oc(OC(C)CCCCCC)nc2s1` (stereo not shown) [Entry 91, 6-Heptyl-2-(1-methylheptyloxy)thieno[2,3-d][1,3]oxazin-4-one], the inhibition at 0.7 µM was found to be 12.4%. Consider `CCCCCCCCOc1nc2sc(C(=O)OCc3ccccc3)c(C)c2c(=O)o1` [Entry 5, 5-Methyl-2-octyloxy-4-oxo-4H-thieno[2,3-d][1,3]oxazine-6-carboxylic acid benzyl ester], for which the k is reported as 0.649 10-3.s-1.

`CCCCCCCCNc1nc2sc(C(=O)OCc3ccccc3)c(C)c2c(=O)s1` [Entry 56, 5-Methyl-2-octylamino-4-oxo-4H-thieno[2,3-d][1,3]thiazine-6-carboxylic acid benzyl ester]: the k is recorded as 0.114 10-3.s-1.

Turning to `CCCCCCCCCCCCCCCCNC(=O)c1sc2nc(NCCCCCCCC)oc(=O)c2c1C` [Entry 30, 5-Methyl-2-octylamino-4-oxo-4H-thieno[2,3-d][1,3]oxazine-6-carboxylic acid hexadecylamide], the k is listed as 0.433 10-3.s-1. Regarding `CCCCCCCCOc1nc2sc(CCCCCCC)cc2c(=O)o1` [Entry 68, 6-Heptyl-2-octyloxy-thieno[2,3-d][1,3]oxazin-4-one], the Ymax was 0.020, the k is 5.825 10-3.s-1 and the inhibition at 0.7 µM came out at 78.9%. With `CCCCCCCCCCCCNC(=O)c1sc2nc(NCCCCCCCC)oc(=O)c2c1C` [Entry 29, 5-Methyl-2-octylamino-4-oxo-4H-thieno[2,3-d][1,3]oxazine-6-carboxylic acid dodecylamide], the k is 0.797 10-3.s-1.

`CCCCCCCCNc1nc2sc(C(=O)N3CCN(Cc4ccccc4)CC3)c(C)c2c(=O)o1` [Entry 40, 6-(4-Benzyl-piperazine-1-carbonyl)-5-methyl-2-octylamino-thieno[2,3-d][1,3]oxazin-4-one]: the k was 0.110 10-3.s-1. Consider `CCCCCCCCNc1nc2sc(C(=O)N(CCCC)CCCC)c(C)c2c(=O)o1` [Entry 36, 5-Methyl-2-octylamino-4-oxo-4H-thieno[2,3-d][1,3]oxazine-6-carboxylic acid dibutylamide], for which the Ymax is 0.616 and the k is on record as 0.146 10-3.s-1. In the case of `CCCCCCCCNc1nc2sc(C(=O)NCc3ccco3)c(C)c2c(=O)o1` [Entry 52, 5-Methyl-2-octylamino-4-oxo-4H-thieno[2,3-d][1,3]oxazine-6-carboxylic acid (furan-2-ylmethyl)-amide], the k was 1.257 10-3.s-1.

On to `CCCCCCCNc1nc2sc(C(=O)OCc3ccccc3)c(C)c2c(=O)o1` [Entry 17, 2-Heptylamino-5-methyl-4-oxo-4H-thieno[2,3-d][1,3]oxazine-6-carboxylic acid benzyl ester], for which the k is 7.74 10-3.s-1.
